Reference: US20160303040A1, “INJECTABLE PHARMACEUTICAL COMPOSITIONS COMPRISING PROSTACYCLIN” (RIGSHOSPITALET, priority 2013, published 2016)

Tests used:
[1] = cited from earlier work
[2] = 10 days short term stability study on iloprost standards diluted with isotonic sodium chloride; format: physicochemical; details: stored at 5° C., after dilution with isotonic sodium chloride solution
Experimental: A: A concentration iloprost equal to 20 μg/ml (was used for the optimization of the HPLC procedure, UV 210 nm)
B: 0.9% sodium chloride in milliQ water (0.9 g NaCl in 100 ml water)
C: 100 μl of A and 900 μl of B: iloprost concentration equal to 2 μg/ml
A 10 days short term stability study was conducted on the standards The test solutions were prepared 11 May 2012 and analysed 11 May 2012, n=2, 15 May 2012, and 21 May 2012 and finally […]. Between the days of analysis the samples were stored at 5° C.

CC#CCC(C)[C@H](O)/C=C/[C@@H]1[C@H]2C/C(=C/CCCC(=O)O)C[C@H]2C[C@H]1O (stereo partly drawn) [Iloprost, 5-{(E)-(1S,5S,6R,7R)-7-hydroxy-6[(E)-(3S,4RS)-3-hydroxy-4-methyl-1-octen-6-inyl]-bi-cyclo[3.3.0]octan-3-ylidene}pentanoic acid]
solubility in water [1]: very slightly soluble | short term stability [2]: No indication on major instability
